Here are results for three compounds from US5714491A, “Peptidyl derivatives as metalloproteinase inhibitors” (Celltech Therapeutics Limited, priority 1993, dated 1998).

The target of one test is Collagenase. Kind of test: Enzyme inhibition assay with fluorogenic peptide substrate, collagenase. In kind it is biochemical. Particulars: Ki (app) assumed to approximate true Ki. The method, then: (§1) All enzyme assays to determine Ki values were performed using the peptide substrate Dnp-Pro-Leu-Gly-Leu-Trp-Ala-D-Arg-NH2. [M. Sharon Stock and Robert D. Gray, JBC 264, 4277-81, 1989]. The enzymes cleave at the Gly-Leu bond which can be followed fluorimetrically by measuring the increase in Trp fluorescence emission associated with the removal of the quenching dinitrophenol (Dnp) group.
(§2) Essentially, enzyme (e.g. gelatinase, stromelysin, collagenase) at 0.08-2 nM; a range of inhibitor concentrations (0.1-50×Ki) and substrate (approx. 20 μm) are incubated overnight in 0.1M Tris/HCI buffer, pH 7.5, containing 0.1M NaCl, 10 mM CaCl2 and 0.05%. Brij 35 at either room temperature or 37° C. depending on the enzyme. The reaction is stopped by adjusting the pH to 4 using 0.1M sodium acetate buffer and the fluorescence read at an excitation wavelength of 280 nm and emission wavelength of 346 nm.
(§3) Ki values can be established using the equation for tight-binding inhibition: [formula] where VO is the initial rate of reaction in the absence of inhibitor, Vi is the initial rate in the presence of inhibitor, [E] is the total enzyme concentration and [I] the total inhibitor concentration in the reaction mixture.
(§4) For stromelysin and collagenasa, Ki (app) was assumed to approximate to the true Ki as [S]<<Km for the substrate hydrolysis. For gelatinase the Ki was determined by performing the analyses at several substrate concentrations. A plot of Ki (app) vs. [S] then gave the true Ki as the value of the y-axis intercept.

The target in the next test is Stromelysin-1 (Homo sapiens, UniProt P08254). Briefly: Enzyme inhibition assay with fluorogenic peptide substrate, stromelysin-1. Particulars: Ki (app) assumed to approximate true Ki. The test is classed as biochemical. The procedure: as §1, §2, §3, §4
Stromelysin-1, sequence (P08254 100-477, species assumed): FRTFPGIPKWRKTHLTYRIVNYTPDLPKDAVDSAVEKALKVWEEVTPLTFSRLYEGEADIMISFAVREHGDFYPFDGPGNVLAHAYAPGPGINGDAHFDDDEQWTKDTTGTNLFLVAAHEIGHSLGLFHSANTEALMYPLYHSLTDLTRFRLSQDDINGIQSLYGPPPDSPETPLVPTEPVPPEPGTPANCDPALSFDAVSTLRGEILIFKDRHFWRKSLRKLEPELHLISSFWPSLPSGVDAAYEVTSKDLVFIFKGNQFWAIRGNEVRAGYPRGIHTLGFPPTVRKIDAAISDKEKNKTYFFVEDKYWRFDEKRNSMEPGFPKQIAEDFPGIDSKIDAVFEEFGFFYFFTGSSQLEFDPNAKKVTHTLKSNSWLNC
Another test has as its target T1, Gelatinase-72KD (Homo sapiens, UniProt P08253).
T1 sequence (P08253 110-660): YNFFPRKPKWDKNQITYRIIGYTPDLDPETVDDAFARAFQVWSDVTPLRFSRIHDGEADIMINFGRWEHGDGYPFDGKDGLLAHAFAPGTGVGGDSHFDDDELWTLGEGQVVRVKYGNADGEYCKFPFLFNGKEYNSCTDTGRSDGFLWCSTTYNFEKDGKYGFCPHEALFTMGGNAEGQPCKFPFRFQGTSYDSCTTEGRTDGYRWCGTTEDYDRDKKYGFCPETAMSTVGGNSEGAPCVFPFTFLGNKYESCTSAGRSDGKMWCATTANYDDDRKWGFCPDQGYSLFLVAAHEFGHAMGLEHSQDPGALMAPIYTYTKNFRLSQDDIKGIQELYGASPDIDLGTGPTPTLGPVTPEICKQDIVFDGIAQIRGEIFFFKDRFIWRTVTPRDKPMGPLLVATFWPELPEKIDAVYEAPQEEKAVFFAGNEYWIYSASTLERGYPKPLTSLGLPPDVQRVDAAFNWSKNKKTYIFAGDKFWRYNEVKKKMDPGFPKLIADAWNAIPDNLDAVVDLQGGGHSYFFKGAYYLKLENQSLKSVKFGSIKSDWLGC
Briefly: Enzyme inhibition assay with fluorogenic peptide substrate, gelatinase-72KD. In kind it is biochemical. Particulars: true Ki from plot of Ki (app) vs. [S]. The method, then: as §1, §2, §3, §4

A further test has as its target T2, gelatinase A (72K form) (Homo sapiens, UniProt P08253).
T2 sequence (P08253 110-660): T1 sequence (P08253 110-660)
Briefly: Mouse pleural cavity assay (oral activity). In kind it is in vivo. Particulars: administered orally, around 25 μm/Kg. The method, then:
The oral activity of the compounds according to the invention may be determined using the mouse pleural cavity assay described below. This assay measures the ability of compounds of the invention when adminstered orally to inhibit a subsequent inoculation of gelatinase into the mouse pleural cavity.
A 2 ml solution of the test compound (for example around 25 μm/Kg) in an appropriate solvent (e.g. 50% polyethylene glycol (PG)) plus a variable proportion of dimethyl sulphoxide (DMSO) (if required) is administered orally. After an interval of up to 24 hrs, 0.4 ml of a mixture of an equal volume (2.2 ml) of the enzyme gelatinase A (72K form at a concentration of 20 nM) and radiolabelled [^14 C]-gelatin (at an approximate concentration of 10 μM i.e. 500 times molar excess) is injected into the pleural cavity and maintained at […]. […] The resulting TCA precipitate is then separated by centrifugation and radioactivity in each supernatant measured by scintillation counting. Results are expressed as a % inhibition of enzyme activity calculated by comparing the radioactivity measured for each test compound with a control value obtained by performing the same assay in the absence of a gelatinase inhibitor. […]

On to `CNC(=O)[C@H](NC(=O)[C@H](CCCc1ccc(Cl)cc1)CC(=O)NO)C(C)(C)SC` [Example 3a), [4-(N-Hydroxyamino)-2(R)-[3-(4-chlorophenyl)propyl]succinyl]-L-[S-(methyl)penicillamine]-N-methylamide], for which the Ki on Collagenase turned out to be 26.3 nM; on Stromelysin-1 it was 5.3 nM; on Gelatinase-72KD, 0.005 nM.
`CC(C)(S)[C@@H](NC(=O)[C@H](CCCc1ccc(Cl)cc1)CC(=O)NO)C(N)=O` [Example 3b), [4-(N-Hydroxyamino)-2(R)-[3-(4-chlorophenyl)propyl]-1-succinyl]-L-penicillamine amide]: the Ki was 122 nM at Collagenase, 3.6 nM at Stromelysin-1 and 0.027 nM at Gelatinase-72KD. Besides, the “% inhibition of enzyme activity” value on gelatinase A (72K form) stood at 100%.
Regarding `CNC(=O)[C@H](NC(=O)[C@H](CCCc1ccc(Cl)cc1)CC(=O)NO)C(C)(C)S(C)(=O)=O` [Example 4, {4-(N-Hydroxyamino)-2(R)-[3-(4-chlorophenyl)propyl]succinyl}-L-[S-(methyl)penicillaminesulphone]-N-methylamide], the figures for the Ki at Collagenase, on Stromelysin-1 and at Gelatinase-72KD were 20.7 nM, 5.92 nM and 0.005 nM, respectively.
